Data: patent US10995101B2, “2-oxo-thiazole derivatives as A2A inhibitors and compounds for use in the treatment of cancers” (iTeos Therapeutics SA, priority 2017, dated 2021)

Experiments:
A2A receptor [1] = target: T1, A2A receptor (Homo sapiens, UniProt P29274); test: Inhibition of cAMP production in HEK cells; assay type: cell-based; settings: HEK-293 cells with A2A receptor
in vitro = settings: human, Caco-2, pH 7.4
Protocol: 2 μM dosing solutions for reference compounds and test compounds are prepared by spiking the appropriate volume of intermediate solution to TB with and without 1 μM Zosuquidar. The final concentration of DMSO is no more than 1% (v/v).
Caco-2 cells are grown in MEM supplemented with 2 mM L-glutamine, 10% FBS, 100 U/mL penicillin-G and 100 μg/mL streptomycin. The cells are incubated at 37° C., 5% CO2 and relatively saturated humidity. After reaching 80-90% confluency, the cells are gently detached with 0.05% trypsin-EDTA solution.
TB and dosing solutions were pre-warmed to 37° C. before transport assay. The cell monolayer was washed twice with HBSS containing 10 mM HEPES. For A-B (apical to basolateral) directional transport assay, 75 μL dosing solution is added to the apical well. Fill each basolateral well with 250 μL TB. For B-A (basolateral to apical) directional transport assay, 250 μL of dosing solution is added to the basolateral well after filling each apical well with 75 μL TB. […] The plates are incubated for 120 minutes at 37° C. with 5% CO2 and saturated humidity. The time zero samples are generated by mixing 50 μL initial dosing solution of test compound or reference compound with 100 μL TB and 250 μL quench solution (acetonitrile (ACN) or other appropriate solvent with internal standard(s), based on the bioanalytical method development). At 120 minutes, 150 μL of solution is collected from each A-B receiver well followed by addition of 250 μL quench solution to get A-B receiver sample. And for other samples (A-B donor, B-A donor and receiver), 50 μL of solution is collected from each corresponding well followed by addition of 250 μL quench solution and 100 μL TB. All samples are vortex-mixed and centrifuged at 3220 g for 20 minutes. Subsequently, supernatant is diluted with ultra pure water for LC-MS/MS analysis. The concentrations of test compound in all samples are determined by LC-MS/MS and expressed as peak area ratio of analyte to internal standard.
The concentration of samples is expressed using the peak area ratio of Analyte to Internal Standard (Analyte/IS).
The efflux ratio is calculated using the following equation: Efflux ratio=Papp(A−B)/Papp(B−A) • where Papp (A−B) and Papp (B−A) are the Papp values of compound in Apical to Basolateral and Basolateral to Apical directional transport, respectively.

A2A receptor [2] = target: T1, A2A receptor; test: Human IL-2 T cell assay (restoration of IL-2 production in CGS-21680-treated CD3+ T cells); assay type: cell-based; design: endogenous in cells; host or cells: human CD3+ T cells isolated from venous blood of healthy volunteers
Source text: When T-cells are activated, they produce pro-inflammatory cytokines. When the A2A receptor is activated in T cells, the amount of cytokines produced in response to stimulation of T-cells is reduced.
Venous blood from healthy volunteers, all of whom signed an informed consent approved by the Ethics Committee (FOR-UIC-BV-050-01-01 ICF_HBS_HD Version 5.0), was obtained via ImmuneHealth (Centre Hospitalier Universitaire Tivoli, La Louviere, Belgium). Mononuclear cells were collected by density gradient centrifugation, using SepMate-50 tubes (StemCell Technologies, Grenoble, France) and Lymphoprep (Axis-shield, Oslo, Norway) according to the manufacturer's instructions. CD3+ T cells were isolated by immunomagnetic negative selection, using the EasySep Human T Cell Isolation Kit (StemCell Technologies) as per manufacturer's instructions. CD3+ T cells were stored in heat inactivated foetal bovine serum (hiFBS; Gibco, ThermoFisher Scientific, Merelbeke, Belgium) containing 10% DMSO in liquid nitrogen.
Human purified CD3+ T cells were thawed and washed twice with RPMI1640 medium (with UltraGlutamine; Lonza, Verviers, Belgium) supplemented with 1× non-essential amino acids (Lonza), 2% Pen/Strep (Lonza) and 1 mM Sodium Pyruvate (Gibco) (complete media), containing 10% hiFBS. The cells were suspended either in complete media containing 20% hiFBS or in 100% heat inactivated human serum (hiHS; Sigma-Aldrich, Diegem, Belgium). Cells were activated by adding anti-CD3 and anti-CD28 coated microbeads (Dynabeads human T-activator CD3/CD28; Life Technologies, Paisley, UK), suspended either in complete media containing 20% hiFBS or in 100% hiHS. […] Serial dilutions of the compounds of the present invention were prepared and added to the wells. The cells were placed in a 37° C. humidified tissue culture incubator with 5% CO2 for 72 hours. After 72 hours, supernatants were sampled and IL-2 was quantified using the IL-2 (human) AlphaLISA Biotin-Free Detection Kit (AL333F; Perkin-Elmer, Zaventem, Belgium), according to the manufacturer's instructions.

[3] = IC50 (nM) (3 nM NECA as agonist, 0.1% BSA), 3 nM NECA as agonist, 0.1% BSA
[4] = IC50 (nM) (5 nM NECA as agonist, 2% HSA), 5 nM NECA as agonist, 2% HSA
[5] = IC50 (nM) (5 μM Adenosine as agonist, 2.0% HSA), 5 μM Adenosine as agonist, 2.0% HSA
[6] = IC50 (nM) (500 nM CGS-21680 as agonist, 10% FBS), restoration of IL-2 production, human CD3+ T cells, anti-CD3/CD28 beads, 500 nM CGS-21680, 10% FBS, 72 hours
[7] = IC50 (nM) (500 nM CGS-21680 as agonist, 50% HSA), restoration of IL-2 production, human CD3+ T cells, anti-CD3/CD28 beads, 500 nM CGS-21680, 50% HSA, 72 hours
[8] = IC50 (nM) (5000 nM CGS-21680 as agonist, 50% HSA), restoration of IL-2 production, human CD3+ T cells, anti-CD3/CD28 beads, 5000 nM CGS-21680, 50% HSA, 72 hours

T1 sequence (P29274 whole entry): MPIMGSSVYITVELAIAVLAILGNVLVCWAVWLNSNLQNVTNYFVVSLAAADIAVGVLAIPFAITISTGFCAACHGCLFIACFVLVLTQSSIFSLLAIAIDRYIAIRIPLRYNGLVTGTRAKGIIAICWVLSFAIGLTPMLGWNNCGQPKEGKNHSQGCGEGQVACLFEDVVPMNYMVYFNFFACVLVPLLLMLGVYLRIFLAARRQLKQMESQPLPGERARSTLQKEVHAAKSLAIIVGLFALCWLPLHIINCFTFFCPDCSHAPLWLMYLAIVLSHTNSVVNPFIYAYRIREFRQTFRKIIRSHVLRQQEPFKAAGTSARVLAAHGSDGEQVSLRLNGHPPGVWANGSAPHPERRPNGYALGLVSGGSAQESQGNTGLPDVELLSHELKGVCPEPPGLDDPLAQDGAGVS

| Compound | IC50 (A2A receptor [1]; [3]) [nM] | IC50 (A2A receptor [1]; [4]) [nM] | IC50 (A2A receptor [1]; [5]) [nM] | efflux ratio at 120 min, 2 μM (in vitro) | IC50 (A2A receptor [2]) [nM] | IC50 (A2A receptor [2]; [6]) [nM] | IC50 (A2A receptor [2]; [7]) [nM] | IC50 (A2A receptor [2]; [8]) [nM] |
| --- | --- | --- | --- | --- | --- | --- | --- | --- |
| Nc1nc2c(sc(=O)n2CCN2CCN(c3ccc(OCC(=O)O)cc3F)CC2)c2nc(-c3ccco3)nn12 [Compound 35, 2-(4-(4-(2-(5-amino-8-(furan-2-yl)-2-oxothiazolo[5,4-e][1,2,4]triazolo[1,5-c]pyrimidin-3(2H)-yl)ethyl)piperazin-1-yl)-3-fluorophenoxy)acetic acid] | 0.7 | 13 | 378 | 26 | 3.9 | 0.6 | 0.5 | 84 |
| Nc1nc2c(sc(=O)n2CCN2CCN(c3ccc(OCc4c[nH]nn4)cc3F)CC2)c2nc(-c3ccco3)nn12 [Compound 1, 3-(2-(4-(4-((1H-1,2,3-triazol-4-yl)methoxy)-2-fluorophenyl)-piperazin-1-yl)ethyl)-5-amino-8-(furan-2-yl)thiazolo[5,4-e][1,2,4]triazolo[1,5-c]pyrimidin-2(3H)-one] | 0.6 | 9 | 511 | 48 |  |  |  | 120 |
| Nc1nc2c(sc(=O)n2CCN2CCN(c3ccc(C(=O)O)cc3F)CC2)c2nc(-c3ccco3)nn12 [Compound 44, 4-(4-(2-(5-amino-8-(furan-2-yl)-2-oxothiazolo[5,4-e][1,2,4]triazolo[1,5-c]pyrimidin-3(2H)-yl)ethyl)piperazin-1-yl)-3-fluorobenzoic acid] | 0.5 | 11 | 127 | 69 |  |  |  | 33 |
| CNCCNC(=O)COc1ccc(N2CCN(CCn3c(=O)sc4c3nc(N)n3nc(-c5ccco5)nc43)CC2)c(F)c1 [Compound 50, 2-(4-(4-(2-(5-amino-8-(furan-2-yl)-2-oxothiazolo[5,4-e][1,2,4]triazolo[1,5-c]pyrimidin-3(2H)-yl)ethyl)piperazin-1-yl)-3-fluorophenoxy)-N-(2-(methylamino)ethyl)acetamide] | 0.3 |  | 13 | 38 | 4.3 | 1 | 2.2 | 28 |
| CNCCNC(=O)c1ccc(N2CCN(CCn3c(=O)sc4c3nc(N)n3nc(-c5ccco5)nc43)CC2)c(F)c1 [Compound 31, 4-(4-(2-(5-amino-8-(furan-2-yl)-2-oxothiazolo[5,4-e][1,2,4]triazolo[1,5-c]pyrimidin-3(2H)-yl)ethyl)piperazin-1-yl)-3-fluoro-N-(2-(methylamino)ethyl)benzamide] | 0.4 | 1 | 42 | 28 | 8.3 | 2.1 | 5.4 | 14 |
| Nc1nc2c(sc(=O)n2CCN2CCN(c3ccc(C(=O)NCC(O)CO)cc3F)CC2)c2nc(-c3ccco3)nn12 (centres unmarked) [Compound 34, 4-(4-(2-(5-amino-8-(furan-2-yl)-2-oxothiazolo[5,4-e][1,2,4]triazolo[1,5-c]pyrimidin-3(2H)-yl)ethyl)piperazin-1-yl)-N-(2,3-dihydroxypropyl)-3-fluorobenzamide] | 0.3 | 6 | 207 | 192 |  |  |  |  |
| Cn1cnc(COc2cc(N3CCN(CCn4c(=O)sc5c4nc(N)n4nc(-c6ccco6)nc54)CC3)c(F)cc2F)n1 [Compound 68, 5-amino-3-(2-(4-(2,4-difluoro-5-((1-methyl-1H-1,2,4-triazol-3-yl)methoxy)phenyl)piperazin-1-yl)ethyl)-8-(furan-2-yl)thiazolo[5,4-e][1,2,4]triazolo[1,5-c]pyrimidin-2(3H)-one] | 14 | 123 | 2700 | 108 |  |  |  |  |
| CNCCNC(=O)COc1cc(N2CCN(CCn3c(=O)sc4c3nc(N)n3nc(-c5ccco5)nc43)CC2)c(F)cc1F [Compound 62, 2-(5-(4-(2-(5-amino-8-(furan-2-yl)-2-oxothiazolo[5,4-e][1,2,4]triazolo[1,5-c]pyrimidin-3(2H)-yl)ethyl)piperazin-1-yl)-2,4-difluorophenoxy)-N-(2-(methylamino)ethyl)acetamide] | 0.5 | 1 | 21 | 23 |  |  |  |  |
| C[S@+]([O-])c1ccc(N2CCN(CCn3c(=O)sc4c3nc(N)n3nc(-c5ccco5)nc43)CC2)c(F)c1 (single isomer, unassigned) [Compound 120] | 0.4 |  | 123 | 33 |  |  |  |  |
| C[S@+]([O-])CCNC(=O)c1cc(N2CCN(CCn3c(=O)sc4c3nc(N)n3nc(-c5ccco5)nc43)CC2)c(F)cc1F [Compound 113, (S)-5-(4-(2-(5-amino-8-(furan-2-yl)-2-oxothiazolo[5,4-e][1,2,4]triazolo[1,5-c]pyrimidin-3(2H)-yl)ethyl)piperazin-1-yl)-2,4-difluoro-N-(2-(methylsulfinyl)ethyl)benzamide] | 0.4 |  | 37 | 374 |  |  |  |  |
| Nc1nc2c(sc(=O)n2CCN2CCN(c3ccc(OC4CNC4)cc3)CC2)c2nc(-c3ccco3)nn12 [Compound 108, 5-amino-3-(2-(4-(4-(azetidin-3-yloxy)phenyl)piperazin-1-yl)ethyl)-8-(furan-2-yl)thiazolo[5,4-e][1,2,4]triazolo[1,5-c]pyrimidin-2(3H)-one] | 0.7 |  | 172 | 191 |  |  |  |  |
| Nc1nc2c(sc(=O)n2CCN2CCN(c3cc(OCCO)ccc3F)CC2)c2nc(-c3ccco3)nn12 [Compound 88, 5-amino-3-(2-(4-(2-fluoro-5-(2-hydroxyethoxy)phenyl)piperazin-1-yl)ethyl)-8-(furan-2-yl)thiazolo[5,4-e][1,2,4]triazolo[1,5-c]pyrimidin-2(3H)-one] | 0.2 |  | 22 | 19 |  |  |  |  |
| Nc1nc2c(sc(=O)n2CCN2CCN(c3cc(OCc4nnn[nH]4)c(F)cc3F)CC2)c2nc(-c3ccco3)nn12 [Compound 66, 3-(2-(4-(5-((1H-tetrazol-5-yl)methoxy)-2,4-difluorophenyl)piperazin-1-yl)ethyl)-5-amino-8-(furan-2-yl)thiazolo[5,4-e][1,2,4]triazolo[1,5-c]pyrimidin-2(3H)-one] | 0.8 | 13 | 543 | 1010 |  |  |  |  |
| Nc1nc2c(sc(=O)n2CCN2CCN(c3cc(OC[C@H](O)CO)c(F)cc3F)CC2)c2nc(-c3ccco3)nn12 [Compound 128, (R)-5-amino-3-(2-(4-(5-(2,3-dihydroxypropoxy)-2,4-difluorophenyl)piperazin-1-yl)ethyl)-8-(furan-2-yl)thiazolo[5,4-e][1,2,4]triazolo[1,5-c]pyrimidin-2(3H)-one] | 0.4 |  | 46 | 419 |  |  |  |  |
| NCC(=O)NCCOc1ccc(N2CCN(CCn3c(=O)sc4c3nc(N)n3nc(-c5ccco5)nc43)CC2)c(F)c1 [Compound 71, 2-amino-N-(2-(4-(4-(2-(5-amino-8-(furan-2-yl)-2-oxothiazolo[5,4-e][1,2,4]triazolo[1,5-c]pyrimidin-3(2H)-yl)ethyl)piperazin-1-yl)-3-fluorophenoxy)ethyl)acetamide] | 0.4 | 3 | 79 | 28 |  |  |  |  |
